For eight compounds, IC50 results are on record in US11542259B2, “Compounds for the treatment of kinase-dependent disorders” (Exelixis, Inc., priority 2018, dated 2023).

Structures are written as SMILES.

In experiment [1] the target is Human Axl (residues H473-A894 with Q764R) (Homo sapiens (Human), UniProt P30530, Q764R). Briefly: Human AXL kinase assay (33P radiometric, KinaseProfiler). Type of experiment: biochemical. Conditions: 10 μM ATP. As for the experimental part: (§1) Kinase activity and compound inhibition were investigated using the ^33P-Phosphoryl transfer radiometric kinase assay, performed using the KinaseProfiler™ service of Eurofins Pharma Discovery Services UK Limited. Dose-response experiments were performed using nine compound concentrations in a 96-well microtiter plate. For each assay, all compounds were prepared to a 50× final assay concentration (50 μM) in 100% DMSO, then diluted in a half-log series, with the final top concentration at 1 μM. This working stock of the compound was added to the assay well as the first component in the reaction, followed by the remaining components as detailed in the following assay protocols below. The positive control wells (100% kinase activity) contain all components of the reaction including 2% DMSO (control for solvent effects), except the compound of interest. Blank wells contain all components of the reaction, with the reference inhibitor, staurosporine. This reference compound was used to abolish kinase activity and generated the 0% kinase activity base-line. IC50 values were calculated by nonlinear regression analysis using the sigmoidal dose-response (variable slope) curve fit on XLFit version 5.3 (ID Business Solutions).
Chain of Human Axl (residues H473-A894 with Q764R) (P30530 473-894 Q764R): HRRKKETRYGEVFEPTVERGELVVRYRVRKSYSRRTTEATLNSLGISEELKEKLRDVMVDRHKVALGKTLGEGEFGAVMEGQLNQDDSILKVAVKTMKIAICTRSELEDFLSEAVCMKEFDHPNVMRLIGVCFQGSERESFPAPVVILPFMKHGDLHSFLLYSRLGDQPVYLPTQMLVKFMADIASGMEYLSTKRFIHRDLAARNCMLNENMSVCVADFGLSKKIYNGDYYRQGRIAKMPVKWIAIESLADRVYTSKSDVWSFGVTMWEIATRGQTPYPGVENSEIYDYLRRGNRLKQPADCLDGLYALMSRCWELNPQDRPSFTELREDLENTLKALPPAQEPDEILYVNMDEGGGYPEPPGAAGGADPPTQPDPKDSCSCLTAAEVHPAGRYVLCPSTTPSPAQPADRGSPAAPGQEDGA
Human Axl (residues H473-A894 with Q764R, 161 nM) was incubated with 8 mM MOPS pH 7.0, 0.2 mM EDTA, 250 μM KKSRGDYMTMQIG (SEO ID NO. 43) 10 mM magnesium acetate and 10 μM [γ-33P-ATP]. The reaction was initiated by the addition of the Mg/ATP mix. After incubation for 40 minutes at room temperature, the reaction was stopped by the addition of phosphoric acid to a concentration of 0.5%. A reaction aliquot of 10 μL was then spotted onto a P30 filtermat and washed four times for 4 minutes in 0.425% phosphoric acid and once in methanol prior to drying and scintillation counting. Incorporated ^33P was measured using the Wallac Microbeta scintillation counter (Perkin Elmer).

The target in experiment [2] is Human Mer (residues R557-E882 with H628Q and R794A) (Homo sapiens (Human), UniProt Q12866). The experiment can be described thus: Human Mer kinase assay (33P radiometric, KinaseProfiler). Type of experiment: biochemical. Conditions: 10 μM ATP. As for the experimental part:
as §1
Human Mer (residues R557-E882 with H628Q and R794A, 0.7 nM) was incubated with 8 mM MOPS pH 7.0, 0.2 mM EDTA, 30 mM NaCl, 250 μM GGMEDIYFEFMGGKKK (SEO ID NO. 44). 10 mM magnesium acetate, and 10 μM [γ-^33P-ATP]. The reaction was initiated by the addition of the Mg/ATP mix. After incubation for 40 minutes at room temperature, the reaction was stopped by the addition of phosphoric acid to a concentration of 0.5%. A reaction aliquot of 10 μL was then spotted onto a P30 filtermat and washed four times for 4 minutes in 0.425% phosphoric acid and once in methanol prior to drying and scintillation counting. Incorporated ^33P was measured using the Wallac Microbeta scintillation counter (Perkin Elmer).

Experiment [3] addresses Human Met (residues R974-S1390 with A1209G and V1290L) (Homo sapiens, UniProt P08581). Briefly: Human Met kinase assay (33P radiometric, KinaseProfiler). Conditions: 10 μM ATP, read-out: c-Met IC50. Type of experiment: biochemical. As for the experimental part: as §1
Human Met (residues R974-S1390 with A1209G and V1290L, 3.4 nM) was incubated with 8 mM MOPS pH 7.0, 0.2 mM EDTA, 250 μM KKKGQEEEYVFIE (SEO ID NO. 45), 1 mM sodium orthovanadate, 5 mM […], 10 mM magnesium acetate, and 10 μM [γ-33P-ATP]. The reaction was initiated by the addition of the Mg/ATP mix. After incubation for 40 minutes at room temperature, the reaction was stopped by the addition of phosphoric acid to a concentration of 0.5%. A reaction aliquot of […] was then spotted onto a P30 filtermat and washed four times for 4 minutes in 0.425% phosphoric acid and once in methanol prior to drying and scintillation counting. Incorporated 33P was measured using the Wallac Microbeta scintillation counter (Perkin Elmer).

The target of another experiment is AXL (Homo sapiens (Human), UniProt P30530). The experiment can be described thus: AXL autophosphorylation ELISA in A-172 cells. It is filed as cell-based. Conditions: cellular, Gas6 stimulated. As for the experimental part:
A-172 glioblastoma cells (ATCC #CRL-1620) were seeded at 2.5×10^5 cells/well onto 24-well plates (Greiner #662165), in DMEM (Thermo Fisher #11995-040) containing 10% FBS (Thermo Fisher #26140-079), 1% MEM NEAA (Thermo Fisher #11140-050), 1% GlutaMax (Thermo Fisher #35050-061) and 1% Penicillin Streptomycin (Thermo Fisher #15140-122). A-172 cells were incubated at 37° C., 5% CO2 for 24 h and then starved for 24 h in serum-free medium. Test compounds were serially diluted to produce an 8-point dose curve in fresh serum-free medium to a final concentration of 0.3% DMSO (vehicle) and added to the cells and incubated for 1 h. Cells were then stimulated with 1 μg/mL recombinant human Gas6 (R&D Systems #885-GSB-500) for 15 min, washed with cold PBS and immediately lysed with 150 μL of cold 1× lysis buffer [20 mM Tris, 137 mM sodium chloride, 2 mM EDTA, 10% glycerol, 1% NP-40 alternative, 1 mM activated sodium orthovanadate, 1 mM PefaBloc SC (Sigma-Aldrich #11429868001), protease/phosphatase inhibitor tablet (Thermo Fisher #A32959)]. Lysates were collected and 100 μL/well added into the human phospho-AXL DuoSet IC ELISA (R&D Systems #DYC2228-2). Assay was performed according to manufacturer's instructions and sample phospho-AXL concentrations were extrapolated using human phospho-AXL control (R&D Systems #841645) as a standard. Positive control wells (100% activity) contained Gash-stimulated, DMSO-treated cell lysates. Negative control wells (0% activity) contained Gash-stimulated, reference inhibitor-treated cell lysates. IC50 values were calculated by nonlinear regression analysis using a 4-parameter logistic curve fit in ActivityBase XE (IDBS).

A further experiment addresses Met (Homo sapiens (Human), UniProt P08581). The experiment can be described thus: Met autophosphorylation ELISA in PC-3 cells. Type of experiment: cell-based. Conditions: cellular, HGF stimulated, read-out: c-Met IC50. As for the experimental part:
PC-3 prostate cancer cells (ATCC #CRL-1435) were seeded at 4×10^4 cells/well onto 24-well plates (Greiner #662165), in DMEM (Thermo Fisher #11995-040) containing 10% FBS (Thermo Fisher #26140-079), 1% MEM NEAA (Thermo Fisher #11140-050), 1% GlutaMax (Thermo Fisher #35050-061), and 1% Penicillin Streptomycin (Thermo Fisher #15140-122). PC-3 cells were incubated at 37° C., 5% CO2 for 24 h and then starved for 3 h in serum-free medium. Test compounds were serially diluted to produce an 8-point dose curve in fresh serum-free medium to a final concentration of 0.3% DMSO (vehicle) and added to the cells and incubated for 1 h. Cells were then stimulated with 100 ng/mL recombinant human HGF (R&D Systems #294-HG-250) for 10 min, washed with cold PBS and immediately lysed with 130 μL of cold 1× lysis buffer [20 mM Tris, 137 mM sodium chloride, 2 mM EDTA, 10% glycerol, 1% NP-40 alternative, 1 mM activated sodium orthovanadate, 1 mM PefaBloc SC (Sigma-Aldrich #11429868001), protease/phosphatase inhibitor tablet (Thermo Fisher #A32959)]. Lysates were clarified by centrifugation and 100 μL/well added into the PathScan phospho-Met (panTyr) Sandwich ELISA (Cell Signaling Technology #7333). Assay was performed according to manufacturer's instructions. Positive control wells (100% activity) contained HGF-stimulated, DMSO-treated cell lysates. Negative control wells (0% activity) contained HGF-stimulated, reference inhibitor-treated cell lysates. IC50 values were calculated by nonlinear regression analysis using a 4-parameter logistic curve fit in ActivityBase XE (IDBS).
(In general: An ELISA detects its analyte on a solid surface through an enzyme-linked reagent.)

The target in the next experiment is KDR (Homo sapiens (Human), UniProt P35968). The experiment can be described thus: KDR autophosphorylation ELISA in HUVEC cells. Type of experiment: cell-based. The settings on record: cellular, VEGF165 stimulated. As for the experimental part:
Human umbilical vein endothelial cells or HUVEC (Lonza #C2519A) were seeded at 2×10^4 cells/well onto 96-well plates (Corning #3904), in EGM-2 growth medium (Lonza #CC-3162) containing 1% Penicillin Streptomycin (Thermo Fisher #15140-122). HUVEC cells were incubated at 37° C., 5% CO2 for 24 h and then starved for 24 h in serum-free EBM-2 basal medium (Lonza #CC-3156) containing 1% Penicillin Streptomycin. Test compounds were serially diluted to produce an 8-point dose curve in fresh serum-free medium to a final concentration of 0.3% DMSO (vehicle) and added to the cells and incubated for 1 h. Cells were then stimulated with 100 ng/mL recombinant human VEGF165 (R&D Systems #293-VE-500) for 5 min, washed with cold PBS, and immediately lysed with 130 μL of cold 1× lysis buffer [20 mM Tris, 137 mM sodium chloride, 2 mM EDTA, 10% glycerol, 1% NP-40 alternative, 1 mM activated sodium orthovanadate, 1 mM PefaBloc SC (Sigma-Aldrich #11429868001), protease/phosphatase inhibitor tablet (Thermo Fisher #A32959)]. Lysates were collected and 100 μL/well added into the human phospho-KDR DuoSet IC ELISA (R&D Systems #DYC1766-2). Assay was performed according to manufacturer's instructions and sample phospho-KDR concentrations were extrapolated using human phospho-KDR control (R&D Systems #841421) as a standard. Positive control wells (100% activity) contained VEGF165-stimulated, DMSO-treated cell lysates. Negative control wells (0% activity) contained non-stimulated cell lysates. IC50 values were calculated by nonlinear regression analysis using a 4-parameter logistic curve fit in ActivityBase XE (IDBS).

Usually IC50 stands for the concentration needed to halve the response being measured.

Chain of Met (P08581 25-1390): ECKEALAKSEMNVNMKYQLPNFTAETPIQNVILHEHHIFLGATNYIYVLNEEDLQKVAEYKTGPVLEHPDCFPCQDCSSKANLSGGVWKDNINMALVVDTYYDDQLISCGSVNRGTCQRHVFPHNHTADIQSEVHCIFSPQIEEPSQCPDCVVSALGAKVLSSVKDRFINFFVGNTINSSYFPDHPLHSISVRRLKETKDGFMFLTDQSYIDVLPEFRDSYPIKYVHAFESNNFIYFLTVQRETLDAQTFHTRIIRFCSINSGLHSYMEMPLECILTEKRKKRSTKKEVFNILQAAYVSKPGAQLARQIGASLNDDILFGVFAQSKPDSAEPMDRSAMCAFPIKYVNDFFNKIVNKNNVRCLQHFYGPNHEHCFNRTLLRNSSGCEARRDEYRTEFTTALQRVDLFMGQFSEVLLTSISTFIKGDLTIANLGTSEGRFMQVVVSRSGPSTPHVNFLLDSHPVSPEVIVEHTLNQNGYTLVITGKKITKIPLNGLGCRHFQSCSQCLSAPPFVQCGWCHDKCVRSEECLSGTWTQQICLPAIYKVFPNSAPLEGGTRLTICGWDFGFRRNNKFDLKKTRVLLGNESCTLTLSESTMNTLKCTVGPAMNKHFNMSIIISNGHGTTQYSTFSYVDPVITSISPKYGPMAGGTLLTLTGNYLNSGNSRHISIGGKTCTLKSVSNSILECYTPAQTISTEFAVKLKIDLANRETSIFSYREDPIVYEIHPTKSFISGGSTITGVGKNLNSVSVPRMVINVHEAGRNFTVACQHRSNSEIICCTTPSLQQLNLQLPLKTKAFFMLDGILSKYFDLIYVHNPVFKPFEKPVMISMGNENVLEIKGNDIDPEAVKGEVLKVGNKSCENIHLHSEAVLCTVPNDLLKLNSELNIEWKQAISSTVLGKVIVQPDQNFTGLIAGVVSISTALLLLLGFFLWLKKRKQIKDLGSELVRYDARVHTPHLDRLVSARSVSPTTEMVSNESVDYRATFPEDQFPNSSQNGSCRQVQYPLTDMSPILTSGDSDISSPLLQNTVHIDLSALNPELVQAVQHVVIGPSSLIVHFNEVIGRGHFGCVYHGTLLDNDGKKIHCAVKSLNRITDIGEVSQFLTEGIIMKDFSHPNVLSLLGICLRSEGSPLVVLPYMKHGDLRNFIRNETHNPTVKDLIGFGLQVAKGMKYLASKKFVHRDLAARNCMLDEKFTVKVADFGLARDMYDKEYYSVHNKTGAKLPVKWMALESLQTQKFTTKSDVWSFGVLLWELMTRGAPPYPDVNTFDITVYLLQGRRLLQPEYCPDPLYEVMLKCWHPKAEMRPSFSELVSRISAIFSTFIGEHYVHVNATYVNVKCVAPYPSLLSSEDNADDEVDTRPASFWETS
Chain of Human Mer (residues R557-E882 with H628Q and R794A) (Q12866 557-882, stated change not applied): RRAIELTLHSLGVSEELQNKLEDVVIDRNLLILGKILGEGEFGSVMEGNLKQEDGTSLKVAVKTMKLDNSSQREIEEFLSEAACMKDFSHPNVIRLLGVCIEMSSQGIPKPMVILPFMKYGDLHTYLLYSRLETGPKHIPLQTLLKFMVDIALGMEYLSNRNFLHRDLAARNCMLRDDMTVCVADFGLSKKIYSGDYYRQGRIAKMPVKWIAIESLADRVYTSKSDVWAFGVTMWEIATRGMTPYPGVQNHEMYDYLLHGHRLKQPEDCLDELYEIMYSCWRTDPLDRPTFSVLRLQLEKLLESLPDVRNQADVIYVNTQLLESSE
Chain of KDR (P35968 20-1356): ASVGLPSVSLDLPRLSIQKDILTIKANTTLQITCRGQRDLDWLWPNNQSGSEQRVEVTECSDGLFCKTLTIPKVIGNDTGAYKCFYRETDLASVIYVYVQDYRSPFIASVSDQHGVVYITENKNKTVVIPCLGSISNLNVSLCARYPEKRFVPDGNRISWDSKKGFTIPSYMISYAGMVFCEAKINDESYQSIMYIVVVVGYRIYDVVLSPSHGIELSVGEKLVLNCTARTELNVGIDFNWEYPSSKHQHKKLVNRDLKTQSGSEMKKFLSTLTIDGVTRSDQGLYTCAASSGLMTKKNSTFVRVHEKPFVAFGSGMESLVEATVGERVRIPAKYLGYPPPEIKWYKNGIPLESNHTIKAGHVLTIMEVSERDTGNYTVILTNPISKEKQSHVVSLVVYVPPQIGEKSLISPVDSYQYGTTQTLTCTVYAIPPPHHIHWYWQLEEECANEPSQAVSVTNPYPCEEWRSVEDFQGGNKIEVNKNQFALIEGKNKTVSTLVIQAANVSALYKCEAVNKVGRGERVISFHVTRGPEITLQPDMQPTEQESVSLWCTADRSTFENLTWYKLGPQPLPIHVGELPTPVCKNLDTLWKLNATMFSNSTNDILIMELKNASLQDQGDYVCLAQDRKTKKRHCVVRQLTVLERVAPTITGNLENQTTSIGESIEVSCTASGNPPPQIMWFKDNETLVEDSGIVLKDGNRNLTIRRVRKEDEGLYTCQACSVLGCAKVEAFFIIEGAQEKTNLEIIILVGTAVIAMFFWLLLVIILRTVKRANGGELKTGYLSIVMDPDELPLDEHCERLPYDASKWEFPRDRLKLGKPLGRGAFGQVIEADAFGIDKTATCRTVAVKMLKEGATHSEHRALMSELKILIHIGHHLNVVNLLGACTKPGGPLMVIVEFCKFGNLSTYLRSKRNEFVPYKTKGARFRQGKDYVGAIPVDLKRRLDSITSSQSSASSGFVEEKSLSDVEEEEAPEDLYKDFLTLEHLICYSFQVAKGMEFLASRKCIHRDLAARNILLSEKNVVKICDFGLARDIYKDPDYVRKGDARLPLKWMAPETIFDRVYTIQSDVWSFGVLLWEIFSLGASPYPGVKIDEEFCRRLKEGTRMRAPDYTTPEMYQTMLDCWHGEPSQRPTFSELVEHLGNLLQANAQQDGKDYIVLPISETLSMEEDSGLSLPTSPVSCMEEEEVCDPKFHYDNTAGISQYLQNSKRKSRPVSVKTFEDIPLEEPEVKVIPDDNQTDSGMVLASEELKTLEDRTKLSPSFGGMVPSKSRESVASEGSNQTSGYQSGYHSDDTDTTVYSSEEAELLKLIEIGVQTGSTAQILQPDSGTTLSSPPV
Chain of AXL (P30530 26-894): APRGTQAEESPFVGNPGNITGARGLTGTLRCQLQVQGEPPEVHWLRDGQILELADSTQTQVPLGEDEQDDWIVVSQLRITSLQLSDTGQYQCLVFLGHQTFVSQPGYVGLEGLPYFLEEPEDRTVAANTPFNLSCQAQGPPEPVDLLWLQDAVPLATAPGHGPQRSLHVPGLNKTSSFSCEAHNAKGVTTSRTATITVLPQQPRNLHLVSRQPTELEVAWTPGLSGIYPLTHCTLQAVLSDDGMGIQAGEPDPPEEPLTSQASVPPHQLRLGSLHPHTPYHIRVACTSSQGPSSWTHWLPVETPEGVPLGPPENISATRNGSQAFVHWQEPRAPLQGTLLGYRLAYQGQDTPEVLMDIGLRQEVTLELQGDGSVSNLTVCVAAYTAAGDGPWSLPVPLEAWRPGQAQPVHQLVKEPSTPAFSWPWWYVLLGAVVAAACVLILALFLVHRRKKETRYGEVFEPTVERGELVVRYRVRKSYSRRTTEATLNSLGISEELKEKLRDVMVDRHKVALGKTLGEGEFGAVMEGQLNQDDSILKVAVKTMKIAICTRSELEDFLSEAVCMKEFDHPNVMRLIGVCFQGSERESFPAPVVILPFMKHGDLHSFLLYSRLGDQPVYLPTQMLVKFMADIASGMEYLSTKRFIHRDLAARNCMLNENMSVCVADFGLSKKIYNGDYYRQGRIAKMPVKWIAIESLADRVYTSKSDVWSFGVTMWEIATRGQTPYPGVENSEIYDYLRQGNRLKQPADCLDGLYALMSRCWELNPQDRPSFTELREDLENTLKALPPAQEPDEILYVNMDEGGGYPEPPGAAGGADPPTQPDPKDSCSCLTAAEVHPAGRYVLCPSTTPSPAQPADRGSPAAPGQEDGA

For `O=C(O)c1ccc2c(Oc3ccc(NC(=O)C4(C(=O)Nc5ccc(F)cc5)CC4)cc3)ccnc2c1` [Compound 163, 4-[4-[[1-[(4-fluorophenyl)carbamoyl]cyclopropanecarbonyl]amino]phenoxy]quinoline-7-carboxylic acid], the IC50 in experiment [1] was 100 to 1000 nM; in experiment [2], 100 to 1000 nM; in experiment [3] it was 10 to 100 nM.
Regarding `COc1cc2nccc(Oc3ccc(NC(=O)C4(C(=O)Nc5ccc(F)cc5)CC4)cc3)c2cc1-c1cccn1C(=O)OC(C)(C)C` [Compound 181, tert-butyl 2-[4-[4-[[1-[(4-fluorophenyl)carbamoyl]cyclopropanecarbonyl]amino]phenoxy]-7-methoxyquinolin-6-yl]pyrrole-1-carboxylate], the half-inhibitory concentration (IC50) in experiment [1] lay in the range of 100 to 1000 nM; in experiment [2], 10 to 100 nM; in experiment [3], 10 to 100 nM.
Turning to `COc1cc2nccc(Oc3ccc(NC(=O)C4(C(=O)Nc5ccc(F)cc5)CC4)cc3)c2cc1C(=O)NC[C@H]1CCCN1` [Compound 21, 1-N′-(4-fluorophenyl)-1-N-[4-[7-methoxy-6-[[(2R)-pyrrolidin-2-yl]methylcarbamoyl]quinolin-4-yl]oxyphenyl]cyclopropane-1,1-dicarboxamide], the IC50 was no more than 10 nM in experiment [2]; no more than 10 nM in experiment [3]; no more than 10 nM at AXL; 10 to 100 nM on Met; 10 to 100 nM at KDR.
`COc1cc2nccc(Oc3ccc(NC(=O)C4(C(=O)Nc5ccc(F)cc5)CC4)cc3)c2cc1C(=O)NCCN(C)C` [Compound 10, 1-N-[4-[6-[2-(dimethylamino)ethylcarbamoyl]-7-methoxyquinolin-4-yl]oxyphenyl]-1-N′-(4-fluorophenyl)cyclopropane-1,1-dicarboxamide]: the IC50 in experiment [1] was 10 to 100 nM; in experiment [2], no more than 10 nM; in experiment [3] it was no more than 10 nM.
Consider `NC(=O)c1cc2c(Oc3ccc(NC(=O)C4(C(=O)Nc5ccc(F)cc5)CC4)cc3)ccnc2cc1Br` [Compound 69, 1-N-[4-(7-bromo-6-carbamoylquinolin-4-yl)oxyphenyl]-1-N′-(4-fluorophenyl)cyclopropane-1,1-dicarboxamide], for which the IC50 in experiment [1] lay in the range of 100 to 1000 nM; in experiment [2] it was 10 to 100 nM; in experiment [3] it was 10 to 100 nM.
In the case of `COc1cc2nccc(Oc3ccc(NC(=O)C4(C(=O)Nc5ccc(F)cc5)CC4)cc3)c2cc1C(=O)NCCN1CCCCC1` [Compound 11, 1-N′-(4-fluorophenyl)-N-[4-[7-methoxy-6-(2-piperidin-1-ylethylcarbamoyl)quinolin-4-yl]oxyphenyl]cyclopropane-1,1-dicarboxamide], the IC50 is no more than 10 nM in experiment [2]; no more than 10 nM in experiment [3]; no more than 10 nM at AXL; 10 to 100 nM on Met; no more than 10 nM on KDR.
Regarding `COc1cc2nccc(Oc3ccc(NC(=O)C4(C(=O)Nc5ccc(F)cc5)CC4)cc3)c2cc1C(=O)NC[C@@H]1CCCN1` [Compound 22, 1-N′-(4-fluorophenyl)-1-N-[4-[7-methoxy-6-[[(2S)-pyrrolidin-2-yl]methylcarbamoyl]quinolin-4-yl]oxyphenyl]cyclopropane-1,1-dicarboxamide], the concentration for half-maximal inhibition (IC50) in experiment [2] was no more than 10 nM; in experiment [3], no more than 10 nM; on AXL it was no more than 10 nM; at Met, 10 to 100 nM; against KDR it was 10 to 100 nM.
In the case of `COc1cc2nccc(Oc3ccc(NC(=O)C4(C(=O)Nc5ccc(F)cc5)CC4)cc3)c2cc1C(=O)NCCN1CCOCC1` [Compound 12, 1-N′-(4-fluorophenyl)-1-N-[4-[7-methoxy-6-(2-morpholin-4-ylethylcarbamoyl)quinolin-4-yl]oxyphenyl]cyclopropane-1,1-dicarboxamide], the IC50 is no more than 10 nM in experiment [2]; no more than 10 nM in experiment [3]; no more than 10 nM against AXL; 10 to 100 nM on Met; no more than 10 nM against KDR.
